Results as given in ChEMBL document CHEMBL1122802, “Pyrido[3',2':4,5]thieno[3,2-d]-N-triazines: a new series of orally active antiallergic agents” (J Med Chem, 1984).

Experiments:
[1] = organism: Rattus norvegicus; assay: Effective dose required for inhibition of passive cutaneous anaphylaxis (PCA) in the rat at multiple dose levels; type: functional
[2] = organism: Rattus norvegicus; assay: Evaluated on antigen induced release of histamine (AIR) in vitro from rat peritoneal mast cells (RMC) at multiple dose levels; type: functional, cell-based; conditions: Mast cell, read-out: I 50
[3] = system: Rattus norvegicus; assay: Inhibition of passive cutaneous anaphylaxis (PCA) in the rat at 25 mg /kg.(orally); type: functional; conditions: po
[4] = system: Rattus norvegicus; assay: Percent inhibition of antigen induced release of histamine (AIR) in vitro from rat peritoneal mast cells (RMC) […].; type: functional
[5] = system: Rattus norvegicus; assay: Percent inhibition of antigen induced release of histamine (AIR) in vitro from rat peritoneal mast cells (RMC) […]; type: functional
[6] = system: Rattus norvegicus; assay: Inhibition of passive cutaneous anaphylaxis (PCA) in the rat at 30 mg /kg.(orally); type: functional; conditions: po

SMILES | ED50 [1] | IC50 [2] | inhibition in vivo at 25 mg/kg [3] | I [4] | I [5] | inhibition in vivo at 30 mg/kg [6]
Cc1cc(C)c2c(n1)sc1c(O)nnnc12 | 3.6 mg/kg | 80 µM | 70% | – | – | –
COC(=O)NNc1nnnc2c1sc1nc(C)ccc12 | – | – | 5% | 21% | – | –
CSc1nnnc2c1sc1nc(C)ccc12 | – | – | – | – | 4% | –
Cc1ccc2c(n1)sc1c(O)nnnc12 | 5.2 mg/kg | 0.25 µM | 88% | – | – | –
Cc1ccc2c(n1)sc1cnnnc12 | 1.5 mg/kg | 29 µM | 93% | – | – | –
Oc1nnnc2c1sc1nc(-c3ccccc3)ccc12 | 3 mg/kg | 0.05 µM | – | – | – | 68%
Cc1ccc2c(n1)sc1c(N)nnnc12 | – | 1.7 µM | 38% | – | – | –
CNc1nnnc2c1sc1nc(C)ccc12 | – | 11 µM | 32% | – | – | –
CCOc1nnnc2c1sc1nc(C)ccc12 | 27 mg/kg | – | 52% | – | 18% | –
CCOCOc1nnnc2c1sc1nc(C)ccc12 | – | 6 µM | 22% | – | – | –
Cc1ccc2c(n1)sc1c(S)nnnc12 | – | 0.1 µM | – | – | – | –
